Source: paper PMC6591174, “The beneficial androgenic action of steroidal aromatase inactivators in estrogen-dependent breast cancer after failure of nonsteroidal drugs” (Cell Death & Disease, 2019)
pIC50: −log10 of the molar value.

Tests used:
[1] = biological target: T1, Rat AR ligand-binding domains (His-GST-ARLBD) (Rattus norvegicus, UniProt P15207); assay: AR fluorescence polarization-based competitive hormone-binding assay (PolarScreen AR Competitor Assay, Red); settings: 25 nM His-GST-ARLBD, 2 nM Fluormone AL Red; read-out: IC50 of competitive binding to AR
T1 construct: purchased Invitrogen
T1 sequence (P15207 651-882 limits assumed): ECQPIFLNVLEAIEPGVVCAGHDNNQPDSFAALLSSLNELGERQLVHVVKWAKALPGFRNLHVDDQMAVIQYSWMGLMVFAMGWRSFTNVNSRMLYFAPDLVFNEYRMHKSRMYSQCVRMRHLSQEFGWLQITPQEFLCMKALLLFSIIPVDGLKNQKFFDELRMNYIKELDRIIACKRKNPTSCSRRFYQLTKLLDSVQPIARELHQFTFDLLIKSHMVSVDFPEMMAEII
Text: Fig. 4 The affinity of indicated compounds to the AR and their regulation of AR transcriptional activity. a AR fluorescence polarization-based competitive hormone-binding assays. […] Curve fitting was done using GraphPad Prism software (version 7.00). […] ARE(3×)-regulated dual-luciferase activity in U2-OS cells under steroid-free conditions. Cells were transiently transfected with pcDNA3.1-AR and ARE3-luc2P (firefly luciferase reporter plasmids) and the internal normalization control pRL-TK (Renilla luciferase reporter plasmid). Six hours after transfection, cells were treated as indicated. Then they were assayed 48 h after transfection for dual-luciferase activity. […] Briefly, compounds were dissolved in DMSO and mixed at 2% (vol/vol) with AR Red Screening Buffer. The tested compounds were subsequently serially diluted in two-fold increments with AR Red Screening Buffer and mixed 1:1 (vol/vol) with a 2 × AR/Fluormone AL complex. Competition for binding AR between Fluormone AL and the tested compounds was allowed to come to equilibrium for 4 h and not more than 20 h at room temperature in the dark. Fluorescence polarization value (mP) was measured on a fluorescence polarization plate reader (Biotech cytation5). Each compound dose was performed in triplicate, relative error was calculated from the standard error of the mean (SEM), and curve fitting was performed using GraphPad Prism™ 7.0 software.

[2] = test system: CCND1 promoter in MCF-7 cells; assay: ChIP-qPCR on the CCND1 promoter; assay type: cell-based, human; settings: 10^-7 M, 2 h
Procedure: Fig. 7 The effect of activated AR on CCND1 expression by changing histone modifications of its promoter. The experimental protocol was as described in “Materials and methods”. a and b The expression of the cyclin D1 protein. Blots were also probed for tubulin (bottom) to verify equal amounts of protein loaded in each lane. The densitometric evaluation is calculated by ImageJ. c The abundance of cyclin D1 mRNA has been detected by real-time reverse transcription-PCR, as described in “Materials and methods”. d–h MCF-7 cells were grown in 10 cm dishes. Confluent cultures (80%) were shifted to PRF for 24 h and then treated with indicated compounds at a concentration of 10^−7 M or left untreated in PRF-CT for 2 h. ChIPs were carried out on serum starved MCF-7 cells as described in “Materials and methods”. Cells were lysed and proteins were precipitated using antibodies against AR (d), H3K4me3 (e), H3K9me3 (f), H3K9ac (g), H3K27ac (h) or rabbit IgG (2 μg/sample each). In control samples (Ig), normal rabbit IgG was used instead of the primary antibodies as control of antibody specificity. Inputs DNA were amplified as loading controls. Five regions of CCND1 promoter were examined by quantitative PCR analysis. The region containing the ARE site was detected by PCR with specific primers (p1-ARE) for antibodies of AR and H3K4me3. Specific primers P4 and p5 were used to investigate the changes in methylation or acetylation of H3K9.
MCF-7 cells were grown in 10 cm dishes. Confluent cultures (80%) were shifted to PRF for 24 h and then treated with various drugs at a concentration of 10^–7 M (as shown in Fig. 8) or left untreated in 5% PRF-CT for 2 h. Following treatment, ChIP assay was performed as described by Morelli et al. and using a simple Chip plus Sonication Chromatin IP kit (Cell Signaling Technology, #56383), following the manufacturer’s protocol. The cells were sonicated 10 times for 10 s at 20% of maximal power (Fisher Sonic Dismembrator) and then treated according to the protocol. Anti-AR (Cat. No. 5153), anti-H3K4me3 (Cat. No. 9751), anti-H3K9me3 (Cat. No. 13969), anti-H3K9ace (Cat. No. 9649), anti-H3K27ace (Cat. No. 8173) or rabbit IgG (Cat. No. 3900) of Cell Signaling Technology antibody were used to precipitate chromatin fragments from cell extracts. We used real-time quantitative PCR (SYBR green) to amplify the DNA fragment in the antibody precipitated DNA and the unprecipitated input DNA to calculate ΔCT values. A specific primer pair was used to amplify 134 bp of the ARE-containing cyclin D1 promoter fragment. For the histone modification antibody, another four pairs of prime locating at 1000 to −2000 bp region from the transcription initiation site of CCND1 were used besides the prime containing ARE. The RQ values (RQ = 2^–ΔCT) are presented and reflect the precipitated DNA as a percentage of the input DNA.

Structure (SMILES)	pIC50 [1]	AR binding to ARE site of CCND1-promoter [2]	H3K4me3 at CCND1 promoter, relative to untreated control cells [2] [%]	H3K9ac at CCND1 promoter [2]	H3K9me3 at CCND1 promoter [2]	H3K27ac at CCND1 promoter [2]
C[C@]12CC[C@H]3[C@@H](CCC4=C(O)C(=O)CC[C@@]43C)[C@@H]1CC[C@@H]2O [4-OHT, 4-hydroxytestosterone]	7.74	almost as strong as that of DHT	< 20	decreased	increased	unchanged
C[C@]12CCC(=O)C[C@@H]1CC[C@@H]1[C@@H]2CC[C@]2(C)[C@@H](O)CC[C@@H]12 [DHT, dihydrotestosterone]	–	strong increase	–	–	–	–
C=C1C[C@H]2[C@@H]3CC[C@H](O)[C@@]3(C)CC[C@@H]2[C@@]2(C)C=CC(=O)C=C12 [17-HEXE, 17-hydroexemestane]	7.98	almost as strong as that of DHT	< 20	decreased	increased	unchanged
